Active and inactive are the calls of the source.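 Rule for the calls: active = compounds giving half or more protection of infected cells from virus-caused growth loss, again on retest; inactive = the rest.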

The assay has as its system CEM cells HIV-1 protection, formazan growth assay. Nature of the assay: NCI AIDS Antiviral Assay. To be noted: for IC50: measured here: growth of uninfected CEM cells. The method, boiled down: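 Protection of CEM cells against HIV-1 measured as cell growth via soluble formazan read-out, with five concentrations tested on both infected and uninfected cells; failure to protect may reflect toxicity.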

Usually EC50 stands for the concentration giving half of the maximal effect. The term IC50 denotes the concentration needed to halve the response being measured. As for `Cc1noc(C)c1-n1nc2ccc3nonc3c2n1`, the EC50 is > 200 µM and the IC50 is > 200 µM. On to `CC1OC(n2cc(F)c(=O)[nH]c2=O)CCC1O` (configuration not stated), for which the EC50 is > 1020 µM and the IC50 was > 200 µM.

`COC(=O)C1(C)CCc2c(OC)ccc(OC)c2C1=O` (configuration not stated): the EC50 is 120 µM and the IC50 was found to be 324 µM. Regarding `C=C1c2[nH]c3c([N+](=O)[O-])c(OC)ccc3c2CCN1C(C)=O`, the outcome was inactive. Take `[O-]/[N+]1=[N+](\[O-])c2ccccc2CCCc2ccccc21`: the EC50 was > 269 µM and the half-inhibitory concentration (IC50) is > 269 µM. Take `Cc1[nH]c(=O)nc(CC(O)(c2ccccc2)c2ccccc2)c1-c1ccccc1`: the EC50 was > 2.75 µM and the IC50 was > 2.75 µM. As to `COc1nc(N)c(N=O)c(=O)n1C`, the result was inactive. As for `O=C(/C=C/c1ccccc1O)c1ccc([N+](=O)[O-])cc1`, the EC50 is > 95.5 µM and the IC50 is 53.7 µM. Regarding `[O-]/C(=C\[P+](c1ccccc1)(c1ccccc1)c1ccccc1)c1ccccc1`, the EC50 is > 200 µM and the IC50 amounted to 32.4 µM. The corresponding values for `Cc1c(N=Nc2cc(N=Nc3ccc(N=Nc4ccc(O)c(C(=O)O)c4)cc3)c(N)cc2N)cccc1S(=O)(=O)O` are 25.7 µM and > 100 µM. As for `CCCOC(=O)Nc1ccc2nc(N(C)C)sc2c1`, the EC50 was > 245 µM and the IC50 amounted to 66.1 µM. For the molecule `CCOC(=O)C1Nc2ccc([N+](=O)[O-])cc2[C@H]2OCC[C@@H]12` (some centres not stated), the EC50 was > 447 µM and the IC50 was > 447 µM. As to `Cc1cc(C)nc(NS(=O)(=O)c2ccc(Nc3c4ccccc4nc4c(C(=O)Nc5ccc(S(=O)(=O)Nc6cc(C)on6)cc5)ccc(Cl)c34)cc2)n1`, the EC50 was > 46.8 µM and the half-maximal inhibitory concentration (IC50) came to 41.7 µM.

Turning to `COc1ccc(-c2oc(C=Nc3ccccc3)c([N+](=O)[O-])c2-c2ccc(OC)c(OC)c2)cc1OC`, the EC50 is > 45.7 µM and the IC50 was > 45.7 µM.

With `NC(=S)N/N=C\NN/C=N/NC(N)=S`, the EC50 was > 200 µM and the IC50 was determined as 102 µM.

Take `CN(C)[C@@H]1C(=O)C(C(N)=O)=C(O)[C@@]2(O)C(=O)C3=C(O)c4c(O)ccc(Cl)c4[C@@](C)(O)[C@H]3C[C@@H]12`: the EC50 was > 14.1 µM and the IC50 is > 14.1 µM. Regarding `O=C(/C=C/c1ccncc1)c1ccccc1`, the EC50 was > 324 µM and the IC50 stood at 6.03 µM. With `O=C1CCCN(c2ccccc2)N1`, the EC50 is > 1410 µM and the IC50 is > 1410 µM. As for `O=C(c1ccc(Cl)cc1)c1cnc2nc(-c3ccccc3)c(-c3ccccc3)nn12`, the EC50 is > 1.78 µM and the IC50 was > 1.78 µM. Regarding `COc1cccc2c1C(=O)c1c(O)c3c(c(O)c1C2=O)C[C@@](O)(C(C)O)C[C@@H]3OC1CC(N)C(O)C(C)O1` (some centres not stated), the outcome was inactive. Turning to `O=c1c(Br)cc2nc3ccccc3sc-2c1Br`, the EC50 is > 10 µM and the IC50 is > 10 µM. Consider `Cc1cc(N=Nc2cc(S(=O)(=O)O)c(N)cc2N)ccc1N=Nc1ccc2cc(S(=O)(=O)O)cc(S(=O)(=O)O)c2c1`, for which the result was inactive. For the molecule `C=C1C(=O)OC2C=C(CCC(C)=O)C(C)C(OC(C)=O)CC12` (configuration not stated), the outcome was inactive. For `CC1C2CC(CC2O)C1(C)C` (configuration not stated), the EC50 is > 1620 µM and the IC50 is > 1620 µM. Consider `COc1ccc(-c2csc(=Nc3ccccc3)n2CCCN(C)C)cc1`, for which the EC50 is > 200 µM and the IC50 came out at 16.2 µM. As for `O=C(N=C1[Se]C(=Nc2ccccc2)C(=Nc2ccccc2)N1c1ccc(Cl)cc1)c1ccccc1`, the EC50 is > 100 µM and the half-maximal inhibitory concentration (IC50) was determined as 89.1 µM. With `CN/N=C(\C)C(CN(C)C)C(c1ccccc1)c1c(O)c2ccccc2oc1=O` (configuration not stated), the EC50 was > 135 µM and the IC50 came out at 102 µM.

In the case of `N#Cc1c(NC(=S)Nc2ccccc2)sc2c1CCCC2`, the EC50 is > 200 µM and the 50% inhibitory concentration (IC50) is > 200 µM.

On to `O=C(NCO)NCOCn1c(=O)n(CO)c(=O)n(CO)c1=O`, for which the EC50 was > 407 µM and the IC50 came to 70.8 µM. Consider `COC(=O)/C=C/N1CC1`, for which the EC50 is > 200 µM and the IC50 was > 200 µM. Regarding `CC1=C(O)C(=O)C2C(=O)C1C1Cc3ccccc3C21` (configuration not stated), the EC50 was > 513 µM and the IC50 is > 513 µM. Consider `COc1cc(C2c3cc4c(cc3OC(Nc3ccccc3)C2C)OCO4)cc(OC)c1OC` (configuration not stated), for which the EC50 is > 200 µM and the 50% inhibitory concentration (IC50) was 0.275 µM. In the case of `COC(=O)C1c2c(C)cc3n2C(C=C(C)C3)C1C(=O)OC` (configuration not stated), the EC50 is 75.9 µM and the IC50 amounted to 107 µM. Take `BrCCC[P+](c1ccccc1)(c1ccccc1)c1ccccc1`: the EC50 was > 20 µM and the IC50 was 0.912 µM. Consider `NC(N)=N/N=C/c1c(-c2ccc(Cl)cc2)nc2n1CCS2`, for which the EC50 is > 200 µM and the 50% inhibitory concentration (IC50) worked out at 11.2 µM. As to `CC1(C)CC2C=C(C=O)C3(C=O)CC3(C)C2C1` (configuration not stated), the EC50 was > 3.47 µM and the IC50 is 0.501 µM.

Turning to `COc1ccc(/C=C\c2cc(OC)c(OC)c(OC)c2)cc1OC(=O)CCC(=O)O`, the EC50 was > 0.2 µM and the IC50 is 0.000562 µM. Take `CCOC(=O)C1(C(=O)OCC)CC(=O)[C@@]2(C1)OCC[C@H]1OC(=O)C[C@H]12`: the EC50 was > 200 µM and the IC50 was > 200 µM. As to `O=C(CC(O)(C(F)(F)F)C(F)(F)F)C(c1ccccc1)C(O)(C(F)(F)F)C(F)(F)F` (configuration not stated), the result was inactive.

For `O=C1CCSC2=C1SCc1sccc12`, the result was inactive. For `COC1(OC)CC2CCCCC2=C(C)N1S(=O)(=O)c1ccccc1` (configuration not stated), the outcome was inactive. In the case of `CCOC(=O)/C=C1/Nc2cc(Cl)c(Cl)cc2NC1=O`, the EC50 is > 9.12 µM and the IC50 was > 9.12 µM.

In the case of `CC(C)(Oc1ccc(Cl)cc1)C(=O)N(C(=O)N1CCCCC1)c1ccccc1`, the EC50 is > 200 µM and the IC50 stood at 13.2 µM. For `CCCCCCCCCCCSSCCCCCCCCCCC`, the EC50 was > 200 µM and the IC50 is > 200 µM. On to `CCOC(=O)/C(C#N)=N\Nc1ccc(-n2c(C)nc3ccc(Br)cc3c2=O)cc1`, for which the EC50 is > 182 µM and the IC50 stood at 75.9 µM. Regarding `[C-]#[O+].[C-]#[O+].[C-]#[O+].[C-]#[O+].[C-]#[O+].[C-]#[O+].[Fe].[Fe].c1ccc([P-]c2ccccc2[P-]c2ccccc2)cc1` (configuration not stated), the EC50 is > 1.82 µM and the IC50 was > 1.82 µM. As to `O=C(O)CC(NC(=O)OCc1ccccc1)C(=O)O` (configuration not stated), the EC50 is > 200 µM and the IC50 was > 200 µM. Regarding `C[n+]1c(-c2ccc(/C=N/Nc3ccnc(N/N=C/c4ccc(-c5cn6ccccc6[n+]5C)cc4)n3)cc2)cn2ccccc21`, the EC50 is 4.68 µM and the IC50 came to 9.77 µM.

For `CCOC(=O)NC1=NCCS1`, the result was inactive. In the case of `Cc1ccc(N2CC(O)CSC2=Nc2ccccc2)cc1` (configuration not stated), the EC50 was > 112 µM and the IC50 came to 46.8 µM. Take `COc1ccc(S(=O)(=O)c2ccc(C(=O)O)cc2)cc1`: the EC50 was > 200 µM and the IC50 was > 200 µM. Consider `CCOC(=O)c1cc2c(nc1N)C(=O)CCCC2`, for which the EC50 is > 200 µM and the half-maximal inhibitory concentration (IC50) was determined as 148 µM. Regarding `CN(C)CCC(=O)C(=Cc1ccc(O)cc1)C(=O)CCN(C)C`, the EC50 was > 646 µM and the IC50 worked out at 43.7 µM.
